Reference: patent US10597388B2, “Pyridazinone herbicides” (FMC CORPORATION, priority 2014, dated 2020)

Columns and labels:
Assay in all cases: Test C greenhouse herbicide test, pre- and postemergence
Type in all cases: in vivo
[1] = system: galium (catchweed bedstraw, Galium aparine)
Summary of the method: (§1)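 Preemergence: seeds sown in a loam soil–sand blend and sprayed with test chemicals in a non-phytotoxic solvent mixture containing surfactant. Postemergence: plants grown in peat-based medium and treated at 2 to 18 cm (1- to 4-leaf stage). After 13 to 15 d in a greenhouse, injury was visually rated 0–100 against controls.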

[2] = system: johnsongrass (Sorghum halepense)
Summary of the method: as §1

[3] = system: lambsquarters (Chenopodium album)
Summary of the method: as §1

[4] = system: foxtail, giant (giant foxtail, Setaria faberii)
Summary of the method: as §1

[5] = system: pigweed (Amaranthus retroflexus)
Summary of the method: as §1

[6] = system: velvetleaf (Abutilon theophrasti)
Summary of the method: as §1

[7] = system: ragweed (common ragweed, Ambrosia elatior)
Summary of the method: as §1

[8] = system: oilseed rape (Brassica napus)
Summary of the method: as §1

[9] = system: barnyardgrass (Echinochloa crus-galli)
Summary of the method: as §1

[10] = system: ryegrass, Italian (Italian ryegrass, Lolium multiflorum)
Summary of the method: as §1

[11] = system: blackgrass (Alopecurus myosuroides)
Summary of the method: as §1

[12] = system: crabgrass, large (large crabgrass, Digitaria sanguinalis)
Summary of the method: as §1

[13] = system: nutsedge, yellow (yellow nutsedge, Cyperus esculentus)
Summary of the method: as §1

[14] = system: waterhemp (common waterhemp, Amaranthus rudis)
Summary of the method: as §1

corn (Zea mays) = system: corn (Zea mays)
Summary of the method: as §1

[15] = system: morningglory (Ipomoea coccinea)
Summary of the method: as §1

[16] = Postemergence, 31 g ai/ha, scale 0 to 100 (0 no effect, 100 complete control)
[17] = Postemergence, 125 g ai/ha, scale 0 to 100, 0 is no effect, 100 is complete control
[18] = Postemergence, 250 g ai/ha, scale 0 to 100, 0 no effect, 100 complete control, 13 to 15 d
[19] = Preemergence, 31 g ai/ha, scale 0 to 100, 0 is no effect, 100 is complete control
[20] = Preemergence, 62 g ai/ha, scale 0 to 100, 0 is no effect, 100 is complete control
[21] = Preemergence, 125 g ai/ha, scale 0 to 100, 0 is no effect, 100 is complete control
[22] = Preemergence, 250 g ai/ha, scale 0 to 100 (0 no effect, 100 complete control)
[23] = postemergence, 62 g ai/ha, scale 0 to 100, 0 no effect, 100 complete control

## CCCC(=O)Oc1c(C)nn(C)c(=O)c1-c1c(C)sc2c(C)cc(C)cc12 [Compound 106]
[1]; [16]
  Plant response rating, Galium: 95
[1]; [17]
  Plant response rating, Galium: 95
[1]; [18]
  Plant response rating, Galium: 100
[1]; [19]
  Plant response rating, Galium: 90
[1]; [20]
  Plant response rating, Galium: 90
[1]; [21]
  Plant response rating, Galium: 95
[1]; [22]
  Galium plant response rating: 95
[2]; [16]
  Plant response rating, Johnsongrass: 5
[2]; [17]
  Plant response rating, Johnsongrass: 10
[2]; [18]
  Plant response rating, Johnsongrass: 10
[2]; [19]
  Plant response rating, Johnsongrass: 5
[2]; [20]
  Plant response rating, Johnsongrass: 5
[2]; [21]
  Plant response rating, Johnsongrass: 5
[2]; [22]
  Johnsongrass plant response rating: 15
[3]; [16]
  Plant response rating, Lambsquarters: 85
[3]; [17]
  Plant response rating, Lambsquarters: 95
[3]; [18]
  Plant response rating, Lambsquarters: 98
[3]; [19]
  Plant response rating, Lambsquarters: 90
[3]; [20]
  Plant response rating, Lambsquarters: 90
[3]; [21]
  Plant response rating, Lambsquarters: 100
[3]; [22]
  Lambsquarters plant response rating: 100
[4]; [16]
  Plant response rating, Foxtail, Giant: 70
[4]; [17]
  Plant response rating, Foxtail, Giant: 90
[4]; [18]
  Plant response rating, Foxtail, Giant: 95
[4]; [19]
  Plant response rating, Foxtail, Giant: 85
[4]; [20]
  Plant response rating, Foxtail, Giant: 95
[4]; [21]
  Plant response rating, Foxtail, Giant: 100
[4]; [22]
  Foxtail, Giant plant response rating: 100
[5]; [16]
  Plant response rating, Pigweed: 70
[5]; [17]
  Plant response rating, Pigweed: 90
[5]; [18]
  Plant response rating, Pigweed: 90
[5]; [19]
  Plant response rating, Pigweed: 98
[5]; [20]
  Plant response rating, Pigweed: 98
[5]; [21]
  Plant response rating, Pigweed: 100
[5]; [22]
  Pigweed plant response rating: 100
[6]; [16]
  Plant response rating, Velvetleaf: 80
[6]; [17]
  Plant response rating, Velvetleaf: 90
[6]; [18]
  Plant response rating, Velvetleaf: 100
[6]; [19]
  Plant response rating, Velvetleaf: 40
[6]; [20]
  Plant response rating, Velvetleaf: 60
[6]; [21]
  Plant response rating, Velvetleaf: 85
[6]; [22]
  Velvetleaf plant response rating: 90
[7]; [16]
  Plant response rating, Ragweed: 80
[7]; [17]
  Plant response rating, Ragweed: 75
[7]; [18]
  Plant response rating, Ragweed: 98
[7]; [19]
  Plant response rating, Ragweed: 85
[7]; [20]
  Plant response rating, Ragweed: 90
[7]; [21]
  Plant response rating, Ragweed: 95
[7]; [22]
  Ragweed plant response rating: 95
[8]; [16]
  Plant response rating, Oilseed Rape: 60
[8]; [17]
  Plant response rating, Oilseed Rape: 85
[8]; [18]
  Plant response rating, Oilseed Rape: 95
[8]; [19]
  Plant response rating, Oilseed Rape: 0
[8]; [20]
  Plant response rating, Oilseed Rape: 0
[8]; [21]
  Plant response rating, Oilseed Rape: 30
[8]; [22]
  Oilseed Rape plant response rating: 90
[9]; [16]
  Plant response rating, Barnyardgrass: 15
[9]; [17]
  Plant response rating, Barnyardgrass: 20
[9]; [18]
  Plant response rating, Barnyardgrass: 40
[9]; [19]
  Plant response rating, Barnyardgrass: 25
[9]; [20]
  Plant response rating, Barnyardgrass: 45
[9]; [21]
  Plant response rating, Barnyardgrass: 85
[9]; [22]
  Barnyardgrass plant response rating: 95
[9]; [23]
  Barnyardgrass plant response rating: 15
[10]; [16]
  Plant response rating, Ryegrass, Italian: 85
[10]; [17]
  Plant response rating, Ryegrass, Italian: 90
[10]; [18]
  Plant response rating, Ryegrass, Italian: 35
[10]; [19]
  Plant response rating, Ryegrass, Italian: 50
[10]; [20]
  Plant response rating, Ryegrass, Italian: 70
[10]; [21]
  Plant response rating, Ryegrass, Italian: 85
[10]; [22]
  Ryegrass, Italian plant response rating: 90
[11]; [16]
  Plant response rating, Blackgrass: 45
[11]; [17]
  Plant response rating, Blackgrass: 60
[11]; [18]
  Plant response rating, Blackgrass: 75
[11]; [19]
  Plant response rating, Blackgrass: 10
[11]; [20]
  Plant response rating, Blackgrass: 50
[11]; [21]
  Plant response rating, Blackgrass: 90
[11]; [22]
  Blackgrass plant response rating: 85
[11]; [23]
  Blackgrass plant response rating: 50
[12]; [16]
  Plant response rating, Crabgrass, Large: 25
[12]; [17]
  Plant response rating, Crabgrass, Large: 30
[12]; [18]
  Plant response rating, Crabgrass, Large: 30
[12]; [19]
  Plant response rating, Crabgrass, Large: 70
[12]; [20]
  Plant response rating, Crabgrass, Large: 70
[12]; [21]
  Plant response rating, Crabgrass, Large: 75
[12]; [22]
  Crabgrass, Large plant response rating: 80
[12]; [23]
  Crabgrass, Large plant response rating: 40
[13]; [16]
  Plant response rating, Nutsedge, Yellow: 65
[13]; [17]
  Plant response rating, Nutsedge, Yellow: 90
[13]; [18]
  Plant response rating, Nutsedge, Yellow: 80
[13]; [19]
  Plant response rating, Nutsedge, Yellow: 60
[13]; [20]
  Plant response rating, Nutsedge, Yellow: 70
[13]; [21]
  Plant response rating, Nutsedge, Yellow: 80
[13]; [22]
  Nutsedge, Yellow plant response rating: 90
[14]; [16]
  Plant response rating, Waterhemp: 65
[14]; [17]
  Plant response rating, Waterhemp: 75
[14]; [18]
  Plant response rating, Waterhemp: 80
[14]; [19]
  Plant response rating, Waterhemp: 70
[14]; [20]
  Plant response rating, Waterhemp: 75
[14]; [21]
  Plant response rating, Waterhemp: 80
[14]; [22]
  Waterhemp plant response rating: 90
Corn (Zea mays); [16]
  Plant response rating, Corn: 0
Corn (Zea mays); [17]
  Plant response rating, Corn: 10
Corn (Zea mays); [18]
  Plant response rating, Corn: 10
Corn (Zea mays); [19]
  Plant response rating, Corn: 0
Corn (Zea mays); [20]
  Plant response rating, Corn: 0
Corn (Zea mays); [21]
  Plant response rating, Corn: 10
Corn (Zea mays); [22]
  Corn plant response rating: 20
Corn (Zea mays); [23]
  Corn plant response rating: 10
[15]; [16]
  Plant response rating, Morningglory: 100
[15]; [17]
  Plant response rating, Morningglory: 100
[15]; [18]
  Plant response rating, Morningglory: 98
[15]; [19]
  Plant response rating, Morningglory: 85
[15]; [20]
  Plant response rating, Morningglory: 90
[15]; [21]
  Plant response rating, Morningglory: 98
[15]; [22]
  Morningglory plant response rating: 98
